Here are results for 33 compounds from patent US8354419B2, “Benzimidazole analogues for the treatment or prevention of flavivirus infections” (Vertex Pharmaceuticals Incorporated, priority 2009, dated 2013).

pEC50: −log10 of the molar value.

The experiment relates to HCV (Ib) RNA replication. Kind of experiment: Cell-based luciferase reporter HCV (1b) RNA replication assay (replicon cell lines Huh-7 5.2 and ET). Further details: species or system Hepatitis C virus. As to conditions: Hepatitis C virus, Huh-7, 96 h, HCV 1b genotype replicon, luciferase readout, 4 days incubation; read-out: EC50_1b. In outline:
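Compounds were tested at eleven concentrations in duplicate over 4 days at 37 °C, 5% CO2. The cells were luciferase-reporter HCV 1b replicon lines 5.2 (NS5A adaptive mutation) or ET (NS4B mutation). Luminescence of lysates was measured, and IC50s were derived by nonlinear curve fitting.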
In general terms: Reporter assays use an easily measured gene product as a stand-in for the process of interest.

Take `COC(=O)N[C@@H](C)C(=O)N1CCC[C@H]1c1nc2cc(C#Cc3ccc4[nH]c([C@@H]5CCCCN5C(=O)OCc5ccccc5)nc4c3)ccc2[nH]1` [Compound 52]: the pEC50 is ≥ 8.30.
Turning to `COC(=O)N[C@@H](C)C(=O)N1CCC[C@H]1c1nc2cc(C#Cc3ccc4[nH]c([C@@H]5CCCN5C(=O)[C@@H](NC(=O)OC)C(C)C)nc4c3)ccc2[nH]1` [Compound 53], the pEC50 was ≥ 8.30.
`COC(=O)N[C@@H](C)C(=O)N1CCC[C@H]1c1nc2cc(C#Cc3ccc4[nH]c([C@@H]5CCCN5C(=O)[C@@H](NC(=O)OC)C(C)(C)C)nc4c3)ccc2[nH]1` [Compound 54]: the pEC50 is ≥ 8.30.
Regarding `COC(=O)N[C@@H](C)C(=O)N1CCC[C@H]1c1nc2cc(C#Cc3ccc4[nH]c([C@@H]5CCCN5C(=O)[C@H](NC(=O)OC)c5ccccc5)nc4c3)ccc2[nH]1` [Compound 55], the pEC50 is ≥ 8.30.
As for `COC(=O)N[C@@H](C)C(=O)N1CCC[C@H]1c1nc2cc(C#Cc3ccc4[nH]c([C@@H]5CCCN5C(=O)[C@H]5CCCO5)nc4c3)ccc2[nH]1` [Compound 56], the figure is ≥ 8.30; as for `COC(=O)N[C@@H](C)C(=O)N1CCC[C@H]1c1nc2cc(C#Cc3ccc4[nH]c([C@@H]5CCCN5)nc4c3)ccc2[nH]1` [Compound 57], 5.30 to 8.30.
Consider `COC(=O)N[C@H](C(=O)N1CCCC[C@H]1c1nc2cc(C#Cc3ccc4[nH]c([C@@H]5CCCCN5C(=O)[C@@H](NC(=O)OC)C(C)C)nc4c3)ccc2[nH]1)C(C)C` [Compound 58], for which the pEC50 was ≥ 8.30.
As for `COC(=O)N[C@@H](C)C(=O)N1CCC[C@H]1c1nc2cc(C#Cc3ccc4c(c3)N=C([C@@H]3CCCN3C(=O)C(c3ccccc3)N(C)C)C4)ccc2[nH]1` (stereo partly drawn) [Compound 59], the pEC50 is ≥ 8.30.
Regarding `COC(=O)N[C@H](C(=O)N1CCCC[C@H]1c1nc2cc(C#Cc3ccc4[nH]c([C@@H]5CCCN5C(=O)[C@@H](NC(=O)OC)C(C)C)nc4c3)ccc2[nH]1)C(C)C` [Compound 60], the pEC50 is ≥ 8.30.
Take `O=C(N1CCC[C@H]1c1nc2cc(C#Cc3ccc4[nH]c([C@@H]5CCCN5C(=O)C5(c6ccccc6)CC5)nc4c3)ccc2[nH]1)C1(c2ccccc2)CC1` [Compound 61]: the pEC50 is ≥ 8.30.
With `COC(=O)N[C@H](C(=O)N1CCC[C@H]1c1nc2cc(C#Cc3ccc4[nH]c([C@@H]5CCCN5C(=O)[C@H](NC(=O)OC)C(C)C)nc4c3)ccc2[nH]1)C(C)C` [Compound 62] the figure was ≥ 8.30.
As for `COC(=O)N(C)[C@H](C(=O)N1CCC[C@H]1c1nc2cc(C#Cc3ccc4nc([C@@H]5CCCN5C(=O)[C@H](C(C)C)N(C)C(=O)OC)[nH]c4c3)ccc2[nH]1)C(C)C` [Compound 63], the pEC50 was ≥ 8.30.
For `COC(=O)N[C@H](C(=O)N1CCC[C@H]1c1nc2ccc(CCc3ccc4nc([C@@H]5CCCN5C(=O)[C@@H](NC(=O)OC)C(C)C)[nH]c4c3)cc2[nH]1)C(C)C` [Compound 64], the pEC50 was ≥ 8.30.
Consider `CC(C)[C@H](NS(C)(=O)=O)C(=O)N1CCC[C@H]1c1nc2cc(C#Cc3ccc4nc([C@@H]5CCCN5C(=O)[C@@H](NS(C)(=O)=O)C(C)C)[nH]c4c3)ccc2[nH]1` [Compound 65], for which the pEC50 is 5.30 to 8.30.
For the compound `CN1CCC[C@H]1C(=O)N1CCCC1c1nc2ccc(C#Cc3ccc4[nH]c([C@@H]5CCCN5C(=O)[C@@H]5CCCN5C)nc4c3)cc2[nH]1` (stereo partly drawn) [Compound 66], the pEC50 was 5.30 to 8.30.
For `O=C1CCC(C(=O)N2CCC[C@H]2c2nc3cc(C#Cc4ccc5nc([C@@H]6CCCN6C(=O)[C@@H]6CCC(=O)N6)[nH]c5c4)ccc3[nH]2)N1` (stereo partly drawn) [Compound 67], the pEC50 was 5.30 to 8.30.
As for `COC(=O)NC(C(=O)N1CCC[C@H]1c1nc2ccc(CCCCc3ccc4[nH]c([C@@H]5CCCN5C(=O)[C@@H](NC(=O)OC)C(C)C)nc4c3)cc2[nH]1)C(C)C` (stereo partly drawn) [Compound 68], the pEC50 was ≥ 8.30.
In the case of `CC(C)(C)OC(=O)N1CCC[C@H]1c1nc2cc(C#CC#Cc3ccc4[nH]c([C@@H]5CCCN5C(=O)OC(C)(C)C)nc4c3)ccc2[nH]1` [Compound 69], the pEC50 was 5.30 to 8.30.
In the case of `CC(C)[C@H](NC(=O)NC1CCCC1)C(=O)N1CCCC1c1nc2cc(C#Cc3ccc4[nH]c([C@H]5CCCN5C(=O)[C@@H](NC(=O)NC5CCCC5)C(C)C)nc4c3)ccc2[nH]1` (stereo partly drawn) [Compound 70], the pEC50 is 5.30 to 8.30.
Regarding `COC[C@H](NC(=O)OC)C(=O)N1CCC[C@H]1c1nc2cc(C#Cc3ccc4nc([C@@H]5CCCN5C(=O)[C@H](COC)NC(=O)OC)[nH]c4c3)ccc2[nH]1` [Compound 71], the pEC50 is ≥ 8.30.
`COC(=O)N(C)[C@H](C(=O)N1CCC[C@H]1c1nc2cc(CCc3ccc4nc([C@@H]5CCCN5C(=O)[C@H](C(C)C)N(C)C(=O)OC)[nH]c4c3)ccc2[nH]1)C(C)C` [Compound 72]: the pEC50 was ≥ 8.30.
Turning to `COC(=O)N[C@@H](C(=O)N1CC[C@H]1c1nc2cc(C#Cc3ccc4[nH]c([C@@H]5CCN5C(=O)[C@H](NC(=O)OC)C(C)C)nc4c3)ccc2[nH]1)C(C)C` [Compound 73], the pEC50 was ≥ 8.30.
With `COC(=O)N[C@H](C(=O)N1CCC[C@H]1c1nc2cc(C#CC#Cc3ccc4nc([C@@H]5CCCN5C(=O)[C@H](NC(=O)OC)C(C)C)[nH]c4c3)ccc2[nH]1)C(C)C` [Compound 74] the figure was ≥ 8.30; with `O=C(N1CCOCC1)N1CCC[C@H]1c1nc2cc(C#Cc3ccc4[nH]c([C@@H]5CCCN5C(=O)N5CCOCC5)nc4c3)ccc2[nH]1` [Compound 75], ≥ 8.30.
Consider `COC(=O)N[C@H](C(=O)N1CCC[C@H]1c1nc2cc(C#Cc3ccc4nc([C@@H]5CCCN5C(=O)[C@@H](O)C(C)C)[nH]c4c3)ccc2[nH]1)C(C)C` [Compound 76], for which the pEC50 is ≥ 8.30.
Consider `COC(=O)N[C@H](C(=O)N1CCC[C@H]1c1nc2cc(C#Cc3ccc4nc([C@@H]5CCCN5C(=O)[C@@H](NC(=O)OC(C)(C)C)C5CCCCC5)[nH]c4c3)ccc2[nH]1)C(C)C` [Compound 77], for which the pEC50 was ≥ 8.30.
As for `COC(=O)N[C@H](C(=O)N1CCC[C@H]1c1nc2cc(C#Cc3ccc4nc([C@@H]5CCCN5C(=O)[C@H](O)C(C)C)[nH]c4c3)ccc2[nH]1)C(C)C` [Compound 78], the figure is ≥ 8.30; as for `C[C@@H](C(=O)N1CCC[C@H]1c1nc2cc(C#Cc3ccc4[nH]c([C@@H]5CCCN5C(=O)[C@H](C)N5CCCC5=O)nc4c3)ccc2[nH]1)N1CCCC1=O` [Compound 79], ≥ 8.30; as for `O=C1CCCCCN1CC(=O)N1CCC[C@H]1c1nc2cc(C#Cc3ccc4[nH]c([C@@H]5CCCN5C(=O)CN5CCCCCC5=O)nc4c3)ccc2[nH]1` [Compound 80], < 5.30.
In the case of `CC(C)[C@@H](C(=O)N1CCC[C@H]1c1nc2cc(C#Cc3ccc4[nH]c([C@@H]5CCCN5C(=O)[C@H](C(C)C)N5CCCC5=O)nc4c3)ccc2[nH]1)N1CCCC1=O` [Compound 81], the pEC50 is ≥ 8.30.
As for `CC(C)[C@@H](NC(=O)O[C@H]1CCOC1)C(=O)N1CCC[C@H]1c1nc2cc(C#Cc3ccc4[nH]c([C@@H]5CCCN5C(=O)[C@H](NC(=O)O[C@H]5CCOC5)C(C)C)nc4c3)ccc2[nH]1` [Compound 82], the figure is 5.30 to 8.30; as for `C[C@H](C(=O)N1CCC[C@H]1c1nc2cc(C#Cc3ccc4[nH]c([C@@H]5CCCN5C(=O)[C@@H](C)N5CCCC5=O)nc4c3)ccc2[nH]1)N1CCCC1=O` [Compound 83], ≥ 8.30.
For the compound `CC(C)C[C@@H](C(=O)N1CCC[C@H]1c1nc2cc(C#Cc3ccc4[nH]c([C@@H]5CCCN5C(=O)[C@H](CC(C)C)N5CCCC5=O)nc4c3)ccc2[nH]1)N1CCCC1=O` [Compound 84], the pEC50 is ≥ 8.30.
